{
  "source": "patent US20160082021A1",
  "about": "“PHARMACEUTICAL COMPOSITION OF DOXYCYCLINE WITH REDUCED FOOD EFFECT” (SUN PHARMACEUTICAL INDUSTRIES LIMITED, priority 2014, published 2016)",
  "origin": "cited, not measured here",
  "conditions": "oral versus intravenous doses",
  "data": [
    {"smiles": "C[C@H]1c2cccc(O)c2C(=O)C2=C(O)[C@]3(O)C(=O)C(C(N)=O)=C(O)[C@@H](N(C)C)[C@@H]3[C@@H](O)[C@@H]21", "note": "[doxycycline]", "values": [
      {"measurement": "absorption for oral administration", "value": "73-77%"}
    ]}
  ]
}
